The record followed here is US20240246946A1, “MODULATORS OF TREX1” (Constellation Pharmaceuticals, Inc., priority 2021, published 2024).

One assay addresses T1, full length mouse TREX1 (Mus musculus, UniProt Q91XB0).
T1 construct: N-terminally His-Tev tagged full length mouse TREX1; made in house; host or cells: E. coli
T1 sequence (Q91XB0 1-314): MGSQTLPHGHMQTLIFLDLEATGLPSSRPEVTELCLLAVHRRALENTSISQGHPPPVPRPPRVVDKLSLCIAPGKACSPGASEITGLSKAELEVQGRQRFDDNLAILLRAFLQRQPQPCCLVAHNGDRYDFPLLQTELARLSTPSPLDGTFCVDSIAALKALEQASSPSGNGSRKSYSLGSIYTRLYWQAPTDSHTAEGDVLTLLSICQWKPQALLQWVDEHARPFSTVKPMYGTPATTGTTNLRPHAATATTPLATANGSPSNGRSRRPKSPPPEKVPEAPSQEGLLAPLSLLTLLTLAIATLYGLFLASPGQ
Description: mTREX1 Biochemical Assay (fluorescence, dsDNA substrate degradation). As to conditions: biochemical, read-out: mTREX1 IC50. A digest of the protocol: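 Reaction run 18 h at 25° C. with 60 nM TEX615/quencher-labelled dsDNA and 6 pM mouse TREX1 in Tris buffer (pH 7.4, 5 mM MgCl2, 1.0% DMSO), enzyme having sat 4 h with compound across 10 concentrations. EDTA quench; substrate degradation measured as fluorescence increase.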

A further assay has as its target T2, full length human TREX1 (Homo sapiens, UniProt Q9NSU2).
T2 construct: N-terminally His-Tev tagged full length human TREX1; made in house; host or cells: E. coli
T2 sequence (Q9NSU2 1-314): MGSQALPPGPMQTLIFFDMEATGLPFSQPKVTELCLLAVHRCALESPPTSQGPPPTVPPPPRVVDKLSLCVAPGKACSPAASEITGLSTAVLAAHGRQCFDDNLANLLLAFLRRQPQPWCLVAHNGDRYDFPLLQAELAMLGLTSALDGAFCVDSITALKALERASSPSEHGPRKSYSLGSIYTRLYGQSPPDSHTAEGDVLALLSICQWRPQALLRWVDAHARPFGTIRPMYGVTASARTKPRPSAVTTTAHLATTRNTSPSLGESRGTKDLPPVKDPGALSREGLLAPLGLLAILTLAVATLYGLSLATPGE
Kind of assay: hTREX1 Biochemical Assay (fluorescence, dsDNA substrate degradation). The following applies: biochemical, read-out: hTREX1 IC50. A digest of the protocol: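 Fluorescence rises as enzyme degrades a quenched TEX615-labelled dsDNA substrate (60 nM) in 50 mM Tris, 150 mM NaCl, 5 mM MgCl2, pH 7.4. Full-length His-Tev-tagged human TREX1, 4 pM, sits with compound 4 hours at 25° C before substrate; reaction 18 hours, stopped with EDTA.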

A further assay addresses T3, hTREX1 (Homo sapiens, UniProt Q9NSU2).
T3 construct: host or cells: HCT116 dual cells
T3 sequence (Q9NSU2 1-314): T2 sequence (Q9NSU2 1-314)
Kind of assay: hTREX1 HCT116 Cell Assay (HCT116 dual cells, Lucia luciferase reporter of Type I interferon induction). The format is cell-based. The following applies: TREX1i 4 h before pBR322/BstNI transfection, read after 48 h. The source says: HCT116 dual cells (Invivogen, San Diego, CA, USA) are derived from the human HCT116 colorectal carcinoma cell line. Cells have been selected for the stable integration of SEAP and Luciferase reporter genes, which expression is under the control of 5 tandem response elements for NF-KB/AP1 and STAT1/STAT2, respectively. The cell line was used to monitor Type I interferon induction and subsequent signaling by measuring the activity of the Lucia luciferase secreted in the culture medium.
HCT116 cells were plated in 96-well plate(s) at 40,000 cells/well in 100 uL DMEM supplemented with 10% FBS and 25 mM Hepes (pH 7.2-7.5). After overnight settling, cells were treated with TREX1i for 4 h (maximum DMSO fraction was 0.1%) before 1 ug/mL pBR322/BstNI restriction digest (New England Biolabs, Ipswich, MA, USA) was transfected with Lipofectamine LTX (ThermoFisher, Grand Island, NY, USA), according to product manual recommendations. Briefly, Lipofectamine LTX (0.35 uL/well) was diluted in OptiMEM (5 uL/well). pBR322/BstNI (100 ng/well) was diluted in OptiMEM (5 uL/well) before Plus reagent (0.1 uL/100 ng DNA) was added. After 5 min incubation at room temperature, the DNA mixture was mixed dropwise with the diluted Lipofectamine LTX. After an additional 10 min incubation, the transfection mix (10 uL/well) was added to the cells. Cells were maintained at 37 C for 48 h before monitoring the Lucia Luciferase activity from the cell culture medium.
On the technique in general: A reporter such as luciferase makes a cellular process visible.

For assay [1], the target named is T4, human TREX2 (residues M44-A279) (Homo sapiens, UniProt Q9BQ50).
T4 construct: human TREX2 (residues M44-A279, expressed in E. coli); made in house; host or cells: E. coli
T4 sequence (Q9BQ50 44-279 isoform Q9BQ50-1): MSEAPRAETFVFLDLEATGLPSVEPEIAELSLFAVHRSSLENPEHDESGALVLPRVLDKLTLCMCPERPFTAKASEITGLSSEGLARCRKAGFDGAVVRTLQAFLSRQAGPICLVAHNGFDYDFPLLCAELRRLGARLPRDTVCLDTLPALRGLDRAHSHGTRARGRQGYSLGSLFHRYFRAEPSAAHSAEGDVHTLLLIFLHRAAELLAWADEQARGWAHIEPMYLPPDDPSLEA
Kind of assay: hTREX2 Biochemical Assay (fluorescence, dsDNA substrate degradation). The following applies: biochemical selectivity for hTREX1 vs hTREX2. A digest of the protocol: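 Fluorogenic dsDNA degradation read at 615 nm (570 nm excitation) after EDTA quench. Final 60 nM substrate, 50 pM His-Tev-tagged enzyme, 5 mM MgCl2, pH 7.4, 1.0% DMSO; 4 h compound–enzyme preincubation then 18 h reaction, both 25 °C; 10-point titration.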

Regarding `CC(c1nc(C(=O)Nc2cnoc2)c(O)c(=O)n1C)C(c1ccccc1C#N)c1c[nH]nc1F` (single isomer, unassigned) [Example 127 D1E1], the IC50 (commonly the concentration that inhibits the measured activity by half) on full length mouse TREX1 is below 1 nM; at full length human TREX1, below 1 nM; against hTREX1 it was below 10 nM. For the same compound, the “hTREX1 vs hTREX2 selectivity” value in assay [1] is reported as “B (B = 25 to 50-fold selective for hTREX1)”.
As for `Cc1cnc(C)c(C(c2ccccc2C#N)C(C)c2nc(C(=O)Nc3cnoc3)c(O)c(=O)n2C)n1` (single isomer, unassigned) [Example 82 D2E1], the IC50 on full length mouse TREX1 is above 10 nM; on full length human TREX1, 1 to 10 nM; against hTREX1 it was above 100 nM. Also, in assay [1], the “hTREX1 vs hTREX2 selectivity” value is on record as “C (C = >50 fold selective for hTREX1)”.
With `CC(c1nc(C(=O)Nc2cnoc2)c(O)c(=O)n1C)C(c1cnn(C)c1)c1ccc(O)cc1C#N` (single isomer, unassigned) [Example 80 D1E1], the results for the IC50 at full length mouse TREX1, on full length human TREX1 and on hTREX1 were 1 to 10 nM, below 1 nM and above 100 nM, respectively. Also, the “hTREX1 vs hTREX2 selectivity” value in assay [1] is on record as “C (C = >50 fold selective for hTREX1)”.
For `CC(c1nc(C(=O)Nc2cnoc2)c(O)c(=O)n1C)C(c1cnn(CC2COC2)c1)c1cc(F)ccc1Cl` (single isomer, unassigned) [Example 94 D1E1], in that order: 1 to 10 nM, 1 to 10 nM, above 100 nM and “B (B = 25 to 50-fold selective for hTREX1)”.
The matching figures for `Cc1cc(C(c2cc(F)ccc2C#N)C(C)c2nc(C(=O)Nc3cnoc3)c(O)c(=O)n2C)n(C)n1` (single isomer, unassigned) [Example 111 D2E1]: above 10 nM, below 1 nM, above 100 nM and “C (C = >50 fold selective for hTREX1)”.
On to `CC(c1nc(C(=O)Nc2cnoc2)c(O)c(=O)n1C)C(c1cnn(C)c1)c1cc(C(F)(F)F)ccc1C#N` (single isomer, unassigned) [Example 29 D1E1], for which the IC50 on full length mouse TREX1 is 1 to 10 nM; at full length human TREX1, below 1 nM; at hTREX1, below 10 nM. The “hTREX1 vs hTREX2 selectivity” value in assay [1] is recorded as “C (C = >50 fold selective for hTREX1)”.
Turning to `Cc1n[nH]c(C)c1C(c1ccccc1C#N)C(C)c1nc(C(=O)Nc2cnoc2)c(O)c(=O)n1C` (single isomer, unassigned) [Example 95 D1E1], the concentration for half-maximal inhibition (IC50) on full length mouse TREX1 is 1 to 10 nM; at full length human TREX1, below 1 nM; against hTREX1, below 10 nM. In assay [1], the “hTREX1 vs hTREX2 selectivity” value is recorded as “C (C = >50 fold selective for hTREX1)”.
On to `COCCn1cc(C(c2ccccc2C#N)C(C)c2nc(C(=O)Nc3cnoc3)c(O)c(=O)n2C)c(C)n1` (single isomer, unassigned) [Example 71 D1E1], for which the IC50 is below 1 nM on full length mouse TREX1, below 1 nM on full length human TREX1 and below 10 nM on hTREX1. Further, the “hTREX1 vs hTREX2 selectivity” value in assay [1] is on record as “C (C = >50 fold selective for hTREX1)”.
As to `Cc1cnc(C(c2ccccc2Cl)C(C)c2nc(C(=O)Nc3cnoc3)c(O)c(=O)n2C)cn1` (single isomer, unassigned) [Example 116 D1E2], the IC50 on full length mouse TREX1 is 1 to 10 nM; at full length human TREX1 it was below 1 nM; at hTREX1, 10 to 100 nM. For the same compound, in assay [1], the “hTREX1 vs hTREX2 selectivity” value is “B (B = 25 to 50-fold selective for hTREX1)”.
For `CC(c1nc(C(=O)Nc2cnoc2)c(O)c(=O)n1C)C(c1ccccc1Cl)c1cnn(C)c1C#N` (single isomer, unassigned) [Example 96 D1E1], in that order: 1 to 10 nM, below 1 nM, above 100 nM and “A (A = <25 fold selective for hTREX1)”.
On to `CC(c1nc(C(=O)Nc2cnoc2)c(O)c(=O)n1C)C(c1cnn(CC(F)F)c1)c1cc(F)ccc1C#N` (single isomer, unassigned) [Example 102 D1E2], for which the IC50 on full length mouse TREX1 is 1 to 10 nM; at full length human TREX1, below 1 nM; at hTREX1, 10 to 100 nM. The “hTREX1 vs hTREX2 selectivity” value in assay [1] is reported as “B (B = 25 to 50-fold selective for hTREX1)”.
The matching figures for `CC(c1nc(C(=O)Nc2cnoc2)c(O)c(=O)n1C)C(c1ccccc1C#N)c1cn(C)nc1F` (single isomer, unassigned) [Example 91 D1E2]: above 10 nM, above 10 nM, above 100 nM and “A (A = <25 fold selective for hTREX1)”.
The matching figures for `CC(c1nc(C(=O)Nc2cnoc2)c(O)c(=O)n1C)C(c1cnc(C(F)(F)F)cn1)c1ccccc1C#N` (single isomer, unassigned) [Example 118 D2E1]: above 10 nM, 1 to 10 nM, above 100 nM and “B (B = 25 to 50-fold selective for hTREX1)”.
For the compound `CC(c1nc(C(=O)Nc2cnoc2)c(O)c(=O)n1C)C(c1cnn(CCN2CCOCC2)c1)c1ccccc1C#N` (single isomer, unassigned) [Example 20 D1E1], the values for the IC50 on full length mouse TREX1, on full length human TREX1 and at hTREX1 were 1 to 10 nM, below 1 nM and 10 to 100 nM, respectively. For the same compound, the “hTREX1 vs hTREX2 selectivity” value in assay [1] is reported as “C (C = >50 fold selective for hTREX1)”.
For `Cc1cc(C(c2cc(F)ccc2C#N)C(C)c2nc(C(=O)Nc3cnoc3)c(O)c(=O)n2C)nn1C` (single isomer, unassigned) [Example 112 D2E1], in that order: above 10 nM, 1 to 10 nM, above 100 nM and “A (A = <25 fold selective for hTREX1)”.
For `CCc1cnn(C(c2ccccc2Cl)C(C)c2nc(C(=O)Nc3cnoc3)c(O)c(=O)n2C)c1` (single isomer, unassigned) [Example 134 D1E1], in that order: 1 to 10 nM, 1 to 10 nM, above 100 nM and “A (A = <25 fold selective for hTREX1)”.
For the compound `Cc1ccn(C(c2cc(F)ccc2Cl)C(C)c2nc(C(=O)Nc3cnoc3)c(O)c(=O)n2C)n1` (single isomer, unassigned) [Example 146 D1E1], the IC50 on full length mouse TREX1 is above 10 nM; at full length human TREX1, 1 to 10 nM; on hTREX1 it was above 100 nM. Besides, in assay [1], the “hTREX1 vs hTREX2 selectivity” value is reported as “C (C = >50 fold selective for hTREX1)”.
Consider `COCCCn1cc(C(c2ccccc2C#N)C(C)c2nc(C(=O)Nc3cnoc3)c(O)c(=O)n2C)cn1` (single isomer, unassigned) [Example 24 D1E1], for which the IC50 on full length mouse TREX1 was below 1 nM; on full length human TREX1 it was below 1 nM; against hTREX1, below 10 nM. Further, the “hTREX1 vs hTREX2 selectivity” value in assay [1] is reported as “C (C = >50 fold selective for hTREX1)”.
